The source of these data is ChEMBL document CHEMBL1124877, “Synthesis and biological evaluation of 4-fluoro-, 7-fluoro-, and 4,7-difluoro-5,6-dihydroxytryptamines” (J Med Chem, 1990).

Holding throughout (assay type): functional, cell-based
Details in all cases: Mus musculus, N2a

Test [1] is described as follows: Inhibition of [3H]- Thymidine incorporation into the DNA of differentiated neuroblastoma clone N-2a cells. (Dividing cells build labelled thymidine or BrdU into new DNA.)
Test [2] is described as follows: Effect on the uptake of [3H]5-HT into differentiated N-2a cells.
Test [3] is described as follows: Inhibition of [3H]- Thymidine incorporation into the DNA of differentiated neuroblastoma clone N-2a cells.

The term IC50 denotes the concentration that gives 50% inhibition. Lower therefore signals higher potency. `NCCc1c[nH]c2cc(O)c(O)cc12`: the IC50 amounted to 92 µM in test [1] and 17.8 µM in test [2].

Turning to `CN1CC(=O)NC1=N.NCCc1c[nH]c2cc(O)c(O)c(F)c12`, the figures for the IC50 in test [3] and in test [2] were 117 µM and 0.55 µM, respectively.

Regarding `CN1CC(=O)NC1=N.NCCc1c[nH]c2c(F)c(O)c(O)cc12`, the IC50 in test [3] stood at 125 µM; in test [2], 0.76 µM.

For `CN1CC(=O)NC1=N.NCCc1c[nH]c2c(F)c(O)c(O)c(F)c12`, the figures for the IC50 in test [3] and in test [2] were 135 µM and 1.36 µM, respectively.
